We go through ten molecules from publication PMC6957260 (European journal of medicinal chemistry, 2013).

The target of experiment [1] is T1, rat TRPV1 (Rattus norvegicus, UniProt O35433). Conditions: cited from earlier work.
Experiment [2] has as its system hTRPV1. The conditions noted are these: hTRPV1 in HEK-293 cells, cited from earlier work; for EC50: read-out: agonism EC50.
For experiment [3], the target named is T1, rat TRPV1. In words: functional 45Ca2+ uptake assay, agonism, rat TRPV1 in CHO cells. The experiment is classed as cell-based. Conditions: for fold less potency for agonism compared to the parent compound: rat TRPV1, parents 2 and 3, respectively.
Experiment [4] concerns the target human TRPV1 (Homo sapiens, UniProt Q8NER1). The experiment is classed as cell-based.
The target in experiment [5] is T1, rat TRPV1. In words: competitive binding assay with [3H]RTX, rat TRPV1 in CHO cells. Conditions: parents 2 and 3, respectively.
Experiment [6] addresses T1, rat TRPV1. Format: cell-based.

T1 sequence (O35433 whole entry): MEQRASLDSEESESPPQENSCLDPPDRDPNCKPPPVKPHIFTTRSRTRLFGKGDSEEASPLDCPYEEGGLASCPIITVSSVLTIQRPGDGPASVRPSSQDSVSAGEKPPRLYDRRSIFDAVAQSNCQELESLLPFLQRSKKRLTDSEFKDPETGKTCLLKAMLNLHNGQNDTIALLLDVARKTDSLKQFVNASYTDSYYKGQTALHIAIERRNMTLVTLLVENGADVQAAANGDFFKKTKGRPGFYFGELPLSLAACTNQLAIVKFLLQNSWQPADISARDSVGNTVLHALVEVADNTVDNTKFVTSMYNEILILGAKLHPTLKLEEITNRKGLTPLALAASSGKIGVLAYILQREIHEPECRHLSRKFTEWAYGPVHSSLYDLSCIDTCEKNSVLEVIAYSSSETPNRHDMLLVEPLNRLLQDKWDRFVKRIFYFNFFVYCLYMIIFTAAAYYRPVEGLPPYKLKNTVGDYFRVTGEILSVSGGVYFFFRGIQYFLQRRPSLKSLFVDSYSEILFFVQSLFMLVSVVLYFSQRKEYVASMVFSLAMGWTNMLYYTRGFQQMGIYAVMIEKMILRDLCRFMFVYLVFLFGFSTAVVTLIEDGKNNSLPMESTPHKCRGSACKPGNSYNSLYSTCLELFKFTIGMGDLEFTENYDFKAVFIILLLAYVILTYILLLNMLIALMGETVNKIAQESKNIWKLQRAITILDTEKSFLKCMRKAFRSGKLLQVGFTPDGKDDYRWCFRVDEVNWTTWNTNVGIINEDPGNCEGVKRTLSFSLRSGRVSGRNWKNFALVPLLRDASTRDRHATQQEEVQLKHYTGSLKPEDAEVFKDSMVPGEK
Chain of human TRPV1 (Q8NER1 whole entry): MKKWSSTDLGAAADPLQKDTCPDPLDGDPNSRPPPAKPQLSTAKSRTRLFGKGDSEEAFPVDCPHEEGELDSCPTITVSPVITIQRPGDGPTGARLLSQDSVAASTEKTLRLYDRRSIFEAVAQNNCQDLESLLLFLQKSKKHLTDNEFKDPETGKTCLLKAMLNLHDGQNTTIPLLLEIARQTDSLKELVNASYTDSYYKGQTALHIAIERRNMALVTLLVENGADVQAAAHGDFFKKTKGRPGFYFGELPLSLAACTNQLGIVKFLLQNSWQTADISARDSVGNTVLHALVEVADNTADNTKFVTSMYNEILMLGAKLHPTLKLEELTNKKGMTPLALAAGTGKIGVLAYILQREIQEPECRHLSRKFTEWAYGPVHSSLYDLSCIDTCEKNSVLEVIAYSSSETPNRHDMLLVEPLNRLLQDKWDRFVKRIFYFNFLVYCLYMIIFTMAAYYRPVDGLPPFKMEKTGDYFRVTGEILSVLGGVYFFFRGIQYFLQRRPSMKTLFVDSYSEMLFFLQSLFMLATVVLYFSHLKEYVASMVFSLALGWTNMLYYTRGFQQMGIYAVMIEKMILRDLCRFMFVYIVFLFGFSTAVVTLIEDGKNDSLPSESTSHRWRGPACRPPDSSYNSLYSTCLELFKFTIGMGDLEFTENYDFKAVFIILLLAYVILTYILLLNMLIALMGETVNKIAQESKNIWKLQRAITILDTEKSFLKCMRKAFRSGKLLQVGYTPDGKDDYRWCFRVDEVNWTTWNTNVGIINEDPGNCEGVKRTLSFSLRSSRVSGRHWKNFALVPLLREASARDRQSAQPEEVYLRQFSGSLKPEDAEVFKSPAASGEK

In the case of `C=C(C)[C@@]12C[C@@H](C)C34OC(Cc5ccccc5)(OC1[C@@H]3C=C(COC(=O)Cc1cc(Br)c(N)c(OC)c1)C[C@]1(O)C(=O)C(C)=C[C@@H]41)O2` (some centres unmarked) [5-bromo-4-amino RTX], the “fold more potent than 5′-iodo RTX (antagonism)” value in experiment [1] is on record as 4.5 fold.
As a reminder, the EC50 is the concentration that produces a half-maximal response. For `C=C(C)[C@]12C[C@@H](C)[C@@]34O[C@](Cc5ccccc5)(O[C@@H]1[C@@H]3C=C(COC(=O)Cc1ccc(O)c(OC)c1)C[C@]1(O)C(=O)C(C)=C[C@@H]41)O2` [Compound 1, Resiniferatoxin, reference compound], the EC50 in experiment [2] was 0.019 nM.
As for `C=C(C)[C@]12C[C@@H](C)[C@@]34O[C@](Cc5ccccc5)(O[C@@H]1[C@@H]3C=C(COC(=O)Oc1cc(F)c(O)c(OC)c1)C[C@]1(O)C(=O)C(C)=C[C@@H]41)O2` [Compound 57], in experiment [3] (rTRPV1), the “fold less potent than RTX (functional activity, agonism)” value is listed as “ca. 5 fold”.
Take `C=C(C)[C@]12C[C@@H](C)[C@@]34O[C@](Cc5ccccc5)(O[C@@H]1[C@@H]3C=C(COC(=O)Oc1cc(Cl)c(O)c(OC)c1)C[C@]1(O)C(=O)C(C)=C[C@@H]41)O2` [Compound 58]: the “mean % of agonism relative to capsaicin” value in experiment [3] was “a The mean % of agonism relative to capsaicin: 13% for 58, 89% for 63, 83% for 64”; in experiment [4], “a The mean % of agonism relative to capsaicin: 52% for 58, 90% for 64”.
In the case of `C=C(C)[C@]12C[C@@H](C)[C@@]34O[C@](Cc5ccccc5)(O[C@@H]1[C@@H]3C=C(COC(=O)Oc1cc(I)c(O)c(OC)c1)C[C@]1(O)C(=O)C(C)=C[C@@H]41)O2` [Compound 60], in experiment [2], the “fold more potent than RTX (agonism)” value was “ca. 4 fold” and the EC50 was 0.0047 nM.
For `C=C(C)[C@]12C[C@@H](C)[C@@]34O[C@](Cc5ccccc5)(O[C@@H]1[C@@H]3C=C(COC(=O)Oc1ccc(N)c(OC)c1)C[C@]1(O)C(=O)C(C)=C[C@@H]41)O2` [Compound 62], the “fold less potency in binding affinity compared to the parent compound” value in experiment [5] is 4.5 fold. Further, the “fold less potency for agonism compared to the parent compound” value in experiment [3] was determined as 4 fold.
On to `C=C(C)[C@]12C[C@@H](C)[C@@]34O[C@](Cc5ccccc5)(O[C@@H]1[C@@H]3C=C(COC(=O)Oc1ccc(NS(C)(=O)=O)c(OC)c1)C[C@]1(O)C(=O)C(C)=C[C@@H]41)O2` [Compound 63], for which the “fold less potency in binding affinity compared to the parent compound” value in experiment [5] turned out to be 5.5 fold. The “fold less potency for agonism compared to the parent compound” value in experiment [3] is 40 fold.
On to `C=C(C)[C@]12C[C@@H](C)[C@@]34O[C@](Cc5ccccc5)(O[C@@H]1[C@@H]3C=C(COC(=O)Oc1cc(F)c(N)c(OC)c1)C[C@]1(O)C(=O)C(C)=C[C@@H]41)O2` [Compound 64], for which, in experiment [4], the “mean % of agonism relative to capsaicin” value was “a The mean % of agonism relative to capsaicin: 52% for 58, 90% for 64”.
For `C=C(C)[C@]12C[C@@H](C)[C@@]34O[C@](Cc5ccccc5)(O[C@@H]1[C@@H]3C=C(COC(=O)Oc1cc(Cl)c(N)c(OC)c1)C[C@]1(O)C(=O)C(C)=C[C@@H]41)O2` [Compound 65], the “fold more potent than I-RTX (antagonism)” value in experiment [6] is “ca. 5 fold”.
Take `C=C(C)[C@]12C[C@@H](C)[C@@]34O[C@](Cc5ccccc5)(O[C@@H]1[C@@H]3C=C(COC(=O)Oc1cc(Br)c(N)c(OC)c1)C[C@]1(O)C(=O)C(C)=C[C@@H]41)O2` [Compound 66]: the “fold more potent than I-RTX (antagonism)” value in experiment [6] was “ca. 5 fold”.
